Experimental data taken from PMC5468247, “Development of a selective agonist for relaxin family peptide receptor 3” (Scientific Reports, 2017).

Columns and labels:
human RXFP3 [1] = molecular target: T1, human RXFP3 (Homo sapiens, UniProt Q9NSD7); assay: Receptor binding assay, NanoLuc-conjugated R3/I5 tracer competition; details: compared with R3/I5
T1 construct: expressed in transfected cells; host or cells: HEK293T
T1 sequence (Q9NSD7 1-469): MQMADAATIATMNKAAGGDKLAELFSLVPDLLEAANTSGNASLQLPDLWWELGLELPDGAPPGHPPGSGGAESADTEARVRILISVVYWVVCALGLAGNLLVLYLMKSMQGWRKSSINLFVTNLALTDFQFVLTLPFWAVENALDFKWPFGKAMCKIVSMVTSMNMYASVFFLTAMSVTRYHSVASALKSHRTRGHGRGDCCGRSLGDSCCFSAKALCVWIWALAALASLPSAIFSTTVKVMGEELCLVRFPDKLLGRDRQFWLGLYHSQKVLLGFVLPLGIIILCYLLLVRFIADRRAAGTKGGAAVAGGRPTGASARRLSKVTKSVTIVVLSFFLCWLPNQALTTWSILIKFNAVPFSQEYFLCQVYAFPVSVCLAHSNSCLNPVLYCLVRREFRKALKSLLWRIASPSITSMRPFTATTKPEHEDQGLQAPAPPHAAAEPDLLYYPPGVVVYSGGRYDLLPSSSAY
Method: (§1) Specific binding data are expressed as means ± SE (n = 3) and fitted to sigmoidal curves using SigmaPlot 10.0 software.
(§2) Briefly, HEK293T cells were transiently transfected with an expression construct of human RXFP3 or human RXFP4. On the next day, transfected cells were trypsinised, seeded into 96-well plates, and continuously cultured for 24–36 h to ~100% confluence. […] After incubation at 21 °C for 2 h, binding solution was removed and cells were washed twice with ice-cold phosphate-buffered saline (200 μl/well for each wash). Thereafter, cells were lysed by lysis solution (100 μl/well, Promega, Madison, WI, USA) and cell lysates were transferred to a white opaque 96-well plate (50 μl/well). After mixing with freshly diluted substrate (50 μl/well), bioluminescence was immediately measured on a SpectraMax M5 plate reader (Molecular Devices, Sunnyvale, CA, USA) in luminescence mode. […] The calculated specific binding data were expressed as means ± standard error (SE; n = 3) and fitted to sigmoidal curves using SigmaPlot 10.0 software.

human RXFP4 [2] = molecular target: T2, human RXFP4 (Homo sapiens, UniProt Q8TDU9); assay: as above; details: compared with R3/I5
T2 construct: expressed in transfected cells; host or cells: HEK293T
Method: as §1, §2

human RXFP3 [3] = molecular target: T1, human RXFP3; assay: Receptor activation assay, CRE-controlled NanoLuc reporter; format: cell-based; details: CRE-NanoLuc reporter, human RXFP3; compared with R3/I5
Description: (§3) HEK293T cells transiently cotransfected with a CRE-controlled NanoLuc reporter vector and the expression construct of human RXFP3 or human RXFP4 were used for activation assays. The measured bioluminescence data are expressed as means ± SE (n = 3) and fitted to sigmoidal or linear curves using SigmaPlot 10.0.
(§4) Briefly, HEK293T cells were transiently cotransfected with the NanoLuc reporter vector pNL1.2/CRE and the expression construct of human RXFP3 or human RXFP4. On the next day, transfected cells were trypsinised, seeded into 96-well plates, and continuously cultured for 24–36 h to ~90% confluence. To initiate activation assays, medium was removed and activation solution (serum-free DMEM medium plus 1% bovine serum albumin) containing 1.0 μM of forskolin and various concentrations of peptide was added (100 μl/well). After continuous culturing at 37 °C for 4 h, activation solution was removed and cells were lysed with lysis solution (100 μl/well, Promega). Cell lysates were then transferred to a white opaque 96-well plate (50 μl/well), mixed with freshly diluted substrate (50 μl/well), and bioluminescence was immediately measured on a SpectraMax M5 plate reader (Molecular Devices) in luminescence mode. The measured data were expressed as means ± SE (n = 3) and fitted to sigmoidal or linear curves using SigmaPlot 10.0 software.

human RXFP4 [4] = molecular target: T2, human RXFP4; assay: as above; format: cell-based
Description: as §3, §4

T2 sequence (Q8TDU9 whole entry): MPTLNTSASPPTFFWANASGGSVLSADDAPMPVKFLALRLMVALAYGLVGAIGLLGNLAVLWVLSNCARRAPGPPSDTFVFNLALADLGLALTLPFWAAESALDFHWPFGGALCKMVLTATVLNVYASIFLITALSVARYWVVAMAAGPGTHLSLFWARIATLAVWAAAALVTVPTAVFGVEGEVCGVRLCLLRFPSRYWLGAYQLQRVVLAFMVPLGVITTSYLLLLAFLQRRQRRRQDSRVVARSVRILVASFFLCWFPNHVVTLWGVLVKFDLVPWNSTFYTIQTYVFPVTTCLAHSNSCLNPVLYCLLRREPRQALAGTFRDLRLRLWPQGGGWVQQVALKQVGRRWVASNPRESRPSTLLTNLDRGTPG

| Compound | binding potency towards RXFP3, in words (human RXFP3 [1]) | binding potency towards RXFP4, in words (human RXFP4 [2]) | activation potency towards RXFP3, in words (human RXFP3 [3]) | fold lower activation potency towards RXFP4 compared with R3/I5 (human RXFP4 [4]; relative to R3/I5) | activation potency towards RXFP4, in words (human RXFP4 [4]; compared with R3/I5) |
| --- | --- | --- | --- | --- | --- |
| CC[C@H](C)[C@@H]1NC(=O)[C@H](Cc2ccccc2)NC(=O)[C@H](CCC(=O)O)NC(=O)[C@H](CCCNC(=N)N)NC(=O)CNC(=O)[C@@H](NC(=O)[C@H](CC(C)C)NC(=O)[C@H](CCCNC(=N)N)NC(=O)[C@@H](NC(=O)CNC(=O)[C@H](Cc2ccc(O)cc2)NC(=O)[C@@H]2CCCN2C(=O)[C@H](C)NC(=O)[C@H](C)NC(=O)[C@H](CCCNC(=N)N)NC(=O)[C@@H]2CCC(=O)N2)C(C)C)CSSC[C@@H]2NC(=O)[C@@H](NC(=O)[C@H](CC(C)C)NC(=O)[C@@H](NC(=O)[C@H](CCC(N)=O)NC(=O)[C@H](CC(C)C)NC(=O)[C@H](CC(=O)O)NC(=O)[C@H](CCC(N)=O)NC(=O)[C@H](CCCNC(=N)N)NC(=O)[C@H](CO)NC(=O)[C@H](CCCNC(=N)N)NC(=O)[C@H](CCCNC(=N)N)NC(=O)[C@H](CO)NC(=O)[C@@H](N)CCCNC(=N)N)[C@@H](C)O)CSSC[C@H](NC(=O)CNC(=O)[C@H](CC(=O)O)NC(=O)[C@H]([C@@H](C)O)NC2=O)C(=O)N[C@@H](CO)C(=O)N[C@@H](CCSC)C(=O)N[C@@H]([C@@H](C)O)C(=O)N[C@@H](CC(=O)O)C(=O)N[C@@H](CC(C)C)C(=O)N[C@@H](CO)C(=O)N[C@@H](C)C(=O)N[C@@H](CC(C)C)C(=O)N[C@H](C(=O)O)CSSC[C@@H](C(=O)N[C@@H](CO)C(=O)NCC(=O)N[C@@H](CO)C(=O)N[C@@H](CCCNC(=N)N)C(=O)N[C@@H](Cc2c[nH]c3ccccc23)C(=O)O)NC(=O)[C@H]([C@@H](C)O)NC(=O)[C@H](Cc2ccccc2)NC(=O)[C@H]([C@@H](C)CC)NC(=O)[C@H](C(C)C)NC(=O)[C@H](C)NC(=O)[C@H](CCCNC(=N)N)NC1=O [[G(B23)S]R3/I5] | retained considerable binding potency | retained high binding potency | lost all activation potency | ~ 100 fold |  |
| CC[C@H](C)[C@@H]1NC(=O)[C@H](Cc2ccccc2)NC(=O)[C@H](CCC(=O)O)NC(=O)[C@H](CCCNC(=N)N)NC(=O)CNC(=O)[C@@H](NC(=O)[C@H](CC(C)C)NC(=O)[C@H](CCCNC(=N)N)NC(=O)[C@@H](NC(=O)CNC(=O)[C@H](Cc2ccc(O)cc2)NC(=O)[C@@H]2CCCN2C(=O)[C@H](C)NC(=O)[C@H](C)NC(=O)[C@H](CCCNC(=N)N)NC(=O)[C@@H]2CCC(=O)N2)C(C)C)CSSC[C@@H]2NC(=O)[C@@H](NC(=O)[C@H](CC(C)C)NC(=O)[C@@H](NC(=O)[C@H](CCC(N)=O)NC(=O)[C@H](CC(C)C)NC(=O)[C@H](CC(=O)O)NC(=O)[C@H](CCC(N)=O)NC(=O)[C@H](CCCNC(=N)N)NC(=O)[C@H](CO)NC(=O)[C@H](CCCNC(=N)N)NC(=O)[C@H](CCCNC(=N)N)NC(=O)[C@H](CO)NC(=O)[C@@H](N)CCCNC(=N)N)[C@@H](C)O)CSSC[C@H](NC(=O)CNC(=O)[C@H](CC(=O)O)NC(=O)[C@H]([C@@H](C)O)NC2=O)C(=O)N[C@@H](CO)C(=O)N[C@@H](CCSC)C(=O)N[C@@H]([C@@H](C)O)C(=O)N[C@@H](CC(=O)O)C(=O)N[C@@H](CC(C)C)C(=O)N[C@@H](CO)C(=O)N[C@@H](C)C(=O)N[C@@H](CC(C)C)C(=O)N[C@H](C(=O)O)CSSC[C@@H](C(=O)NCC(=O)N[C@@H](C)C(=O)N[C@@H](CO)C(=O)N[C@@H](CCCNC(=N)N)C(=O)N[C@@H](Cc2c[nH]c3ccccc23)C(=O)O)NC(=O)[C@H]([C@@H](C)O)NC(=O)[C@H](Cc2ccccc2)NC(=O)[C@H]([C@@H](C)CC)NC(=O)[C@H](C(C)C)NC(=O)[C@H](C)NC(=O)[C@H](CCCNC(=N)N)NC1=O [[G(B24)A]R3/I5] | retained full binding potency | retained full binding potency | retained full activation potency |  | retained full activation potency |
